{
  "source": "patent US20100254914A1",
  "about": "“NANOWORMS FOR IN VIVO TUMOR TARGETING” (THE REGENTS OF THE UNIVERSITY OF CALIFORNIA, priority 2009, published 2010)",
  "key": {"[1]": {"tested_on": "HT1080 tumors", "assay": "In vivo tumor homing, HT1080 xenograft", "set-up": "species or system Nude BALB/c mice", "method": "In vivo tumor homing. MDA-MB-435 human breast carcinoma cells or HT1080 human fibrosarcoma cells (1×10^6) were injected into the mammary fat pad or subcutaneously injected into Nude BALB/c mice, respectively. Tumors were used when they reached ˜0.5 cm in size. Some 0.2 cm or 1 cm tumors were used to compare the dependence of tumor size on NW homing. Cy7-labed or non-labeled NW or NS were intravenously injected into mice (n=3˜8 for each formulation) with a dose of 1 mg Fe/kg body mass (for fluorescence studies) and 3 mg Fe/kg body mass (for magnetization studies). For real-time observation of tumor/liver uptake, animals were imaged under anesthesia in Cy7 channel using the BonSai fluorescence-imaging system (Siemens, Pa., USA) 6 hrs, 24 hrs or 48 hrs after injection. For NIR fluorescence imaging of organs, animals were sacrificed 24 hrs after the injection by cardiac perfusion with PBS under anesthesia, and organs were dissected and imaged in Cy7 channel with a NIR fluorescence scanner (LI-COR biosciences, NE, USA). All the NIR images for animals or organs were taken at the same exposure time. To quantify the amount of NW or NS homing, collected tumors were weighed, freeze-dried in gelatin capsules, and then analyzed for magnetization using SQUID. […] At least three images from representative microscopic fields were analyzed for each tumor sample."}, "[2]": {"assay": "Hydrodynamic size by dynamic light scattering", "assay_type": "physicochemical", "settings": "Table 1", "source_text": "The nanostructure appears as linearly aggregated IO cores with a mean hydrodynamic size (in the long dimension) of 65 nm (FIG. 1a and Table 2). When a higher molecular mass dextran (40 kDa) was used branched IO cores were obtained, with a larger average size (˜100 nm) and a broader size distribution (FIG. 5). […] NW show a slightly larger saturation magnetization value (74.2 emu/gFe vs. 61.5 emu/gFe and 53.5 emu/gFe) and a higher MR contrast (R2=116 mMFe^−1S^−1 vs R2=70 mMFe^−1S^−1 and R2=95 mMFe^−1S^−1) than NS and Feridex (FIG. 1b). […]\nBlood half-life and biodistribution. To quantify the in vivo circulation times of NW or NS samples in Nude BALB/c mice (n=3-4 for each formulation), heparinized capillary tubes (Fisher) were used to draw 15 μL (for fluorescence) or 70 μl (for magnetization) of blood from the periorbital plexus at different times after intravenous injection of the NW or NS samples (1, 3, or 10 mg Fe/kg body mass). […] For Cy7-labeled NW or NS formulations, blood extracted at different times was imaged in a 96-well plate in Cy7 channel (762 nm excitation/800 nm emission) with a NIR fluorescence scanner (LI-COR biosciences, NE, USA). The images were analyzed using the ImageJ (NIH) or Osirix (Apple) programs. […] Organs and blood were immediately weighed, freeze-dried in gelatin capsules, and then analyzed for magnetization using SQUID."}, "[3]": {"tested_on": "MDA-MB-435 tumors", "assay": "In vivo tumor homing, MDA-MB-435 xenograft", "set-up": "species or system Nude BALB/c mice", "settings": "for tumor uptake / targeting efficiency: 24 hrs post-injection", "method": "In vivo tumor homing. MDA-MB-435 human breast carcinoma cells or HT1080 human fibrosarcoma cells (1×10^6) were injected into the mammary fat pad or subcutaneously injected into Nude BALB/c mice, respectively. Tumors were used when they reached ˜0.5 cm in size. Some 0.2 cm or 1 cm tumors were used to compare the dependence of tumor size on NW homing. Cy7-labed or non-labeled NW or NS were intravenously injected into mice (n=3˜8 for each formulation) with a dose of 1 mg Fe/kg body mass (for fluorescence studies) and 3 mg Fe/kg body mass (for magnetization studies). For real-time observation of tumor/liver uptake, animals were imaged under anesthesia in Cy7 channel using the BonSai fluorescence-imaging system (Siemens, Pa., USA) 6 hrs, 24 hrs or 48 hrs after injection. For NIR fluorescence imaging of organs, animals were sacrificed 24 hrs after the injection by cardiac perfusion with PBS under anesthesia, and organs were dissected and imaged in Cy7 channel with a NIR fluorescence scanner (LI-COR biosciences, NE, USA). All the NIR images for animals or organs were taken at the same exposure time. To quantify the amount of NW or NS homing, collected tumors were weighed, freeze-dried in gelatin capsules, and then analyzed for magnetization using SQUID. For histologic analysis, frozen sections of tumors were prepared. The sections were fixed with 4% paraformaldehyde and stained with DAPI for observation of NW or NS only. The rat anti-mouse CD-31 (1:50, BD PharMingen) and biotinylated mouse fibrin(ogen) antiserum (1:50, Nordic) were used for immunochemicostaining of tumor tissue sections. The corresponding secondary antibodies were added and incubated for 1 hour at room temperature: AlexaFluor-594 goat anti-rat or rabbit IgG (1:1,000; Molecular Probes), streptavidin Alexa Fluor 594 (1:1000; Molecular Probes). The slides were washed three times with PBS and mounted in Vectashield Mounting Medium with DAPI. At least three images from representative microscopic fields were analyzed for each tumor sample."}, "[4]": {"tested_on": "C8161 cells", "assay": "In vitro cellular fluorescence imaging with heating, C8161", "assay_type": "cell-based", "settings": "20 min at 45° C. vs 37° C., then 2 hr at 37° C.", "method": "(§1) In vitro cellular fluorescence imaging. The cells were treated with 80 ug Fe/mL of Cy5.5 labeled control NWs or LyP1NWs per well for 20 min at 37° C. or 45° C. in the presence of 10% FBS and incubated for an additional 2 hr at 37° C. in the presence of 10% FBS. The cells were then rinsed three times with cell medium, fixed, stained, and imaged by fluorescence microscopy."}, "[5]": {"tested_on": "MDA-MB-435 tumors", "assay": "In vivo temperature-induced tumor targeting of magnetic nanoworms, MDA-MB-435", "set-up": "species or system mice", "settings": "45° C. for 30 min, 24 hrs post-injection", "method": "In vivo temperature-induced tumor targeting of magnetic nanoworms. Mice bearing bilateral MDA-MB-435 human carcinoma tumors were intravenously injected with Cy7-labeled LyP1NWs or NWs and one flank of the mouse (containing one of the tumors) was immediately heated at 45° C. for 30 min in a temperature-controlled water bath. At 24 hrs post-injection, the tissues were harvested and the Cy7 fluorescence in tissues were imaged using NIR fluorescence imaging system (LI-COR Odyssey)."}, "[6]": {"tested_on": "MDA-MB-435 cells", "assay": "In vitro cellular fluorescence imaging with heating, MDA-MB-435", "assay_type": "cell-based, human", "settings": "20 min at 45° C. vs 37° C., then 2 hr at 37° C.", "method": "as §1"}, "[7]": {"tested_on": "C8161 tumors", "assay": "In vivo temperature-induced tumor targeting of magnetic nanoworms, C8161", "set-up": "species or system mice", "settings": "heated relative to unheated tumors"}, "[8]": {"target": "T1, p32 or gC1qR receptor (human, UniProt Q07021 74-282)", "T1 construct": "whole, on cells; Endogenous p32 on MDA-MB-435 cells and tumors, stained with an anti-p32 antibody; also called p32 receptors", "T1 sequence (looked up)": "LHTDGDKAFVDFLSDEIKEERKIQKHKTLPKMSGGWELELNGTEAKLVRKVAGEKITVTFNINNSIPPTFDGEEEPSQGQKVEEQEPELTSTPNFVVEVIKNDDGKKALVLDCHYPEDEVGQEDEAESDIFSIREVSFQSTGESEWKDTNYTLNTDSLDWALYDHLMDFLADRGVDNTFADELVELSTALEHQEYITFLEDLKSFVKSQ", "assay": "fluorescence microscopy of MDA-MB-435 cells, colocalization with anti-p32 stain"}, "[9]": {"settings": "compared with the other samples"}},
  "note": "Bridge positions count the residues as written; N and C are the ends. Ends that are not written are not given here.",
  "data": [
    {"molecule": "NW-P175-C: NW with 175 amines to which CREKA is conjugated through a PEG spacer, 60 peptides (not fully specified; also: CREKA conjugated through PEG spacer to nanoworm with 175 amines, 60 peptides (attachment site not given here))", "values": [
      {"measurement": "tumor uptake / targeting efficiency", "setting": "[1]; 24 hrs post-injection", "result": "best"},
      {"measurement": "tumor:liver ratio (NIR fluorescence)", "setting": "[1]; [9]", "result": "significant increases"},
      {"measurement": "Size [nm] (mean hydrodynamic size)", "setting": "[2]", "result": 85.0, "unit": "nm"},
      {"measurement": "tumor uptake / targeting efficiency", "setting": "[3]", "result": "significantly higher levels of uptake"},
      {"measurement": "tumor uptake / targeting efficiency", "setting": "[3]; listed as NW-P-175-C", "result": "best"},
      {"measurement": "tumor:liver ratio (NIR fluorescence)", "setting": "[3]; [9]", "result": "significant increases"}
    ]},
    {"molecule": "NW-P-C: PEGylated CREKA-conjugated NW (family; ~60 CREKA peptides in the comparison) (not fully specified; also: CREKA conjugated via PEG to nanoworms (attachment site not given here))", "values": [
      {"measurement": "tumor uptake / targeting efficiency", "setting": "[3]", "result": "significantly greater"}
    ]},
    {"molecule": "LyP1NWs: LyP-1 peptide attached to Cy5.5-labeled aminated NWs via PEG crosslinker, ~40 peptides per nanoworm (CGNKRTRGC; disulfide 1-9 (inferred); not fully specified; printed as Cys-Gly-Asn-Lys-Arg-Thr-Arg-Gly-Cys; also: extra Cys added for conjugation, position not given here)", "values": [
      {"measurement": "binding and internalization upon heating", "setting": "[4]", "result": "lower heat-mediated internalization"},
      {"measurement": "targeting to heated tumors", "setting": "[5]", "result": "prominent relative to unheated tumors"},
      {"measurement": "binding and internalization upon heating", "setting": "[6]", "result": "Significant quantities"},
      {"measurement": "homing to heated tumors", "setting": "[7]", "result": "not significantly different"}
    ]},
    {"molecule": "CGNKRTRGC (disulfide 1-9 (inferred); not fully specified; printed as Cys-Gly-Asn-Lys-Arg-Thr-Arg-Gly-Cys; also: peptide is cyclic, conjugated via PEG crosslinker to Cy5.5-labeled dextran iron oxide nanoworm, extra Cys added for conjugation, position not given here, also called Lyp1-conjugated Cy5.5-labeled magnetic nanoworms; LyP1-conjugated NWs)", "note": "[LyP-1 peptide-conjugated magnetic nanoworms (LyP1NWs)]", "values": [
      {"measurement": "binding result", "setting": "[8]", "result": "binds"}
    ]}
  ]
}
